In BindingDB's records for patent US20250304549 (Sichuan Huiyu Pharmaceutical, 2025):

Experiments:
[1] = target: Lysine-specific histone demethylase 1A (Homo sapiens, UniProt O60341); test: In Vitro Enzyme Inhibition Assay - LSD1
Procedure: Initially, a master solution of 90 μM test compound (dissolved in DMSO) was prepared and sequentially diluted with DMSO in a 5-fold concentration gradient to yield a total of 9 concentrations of the compound working solution 1 (90×). Subsequently these 9 concentrations of working solution 1 were sequentially diluted by a 30-fold concentration gradient, i.e., 2 μL of working solution 1 was aspirated and added to 58 μL of Buffer, mixed on a vortex mixer with sufficient shaking to yield 9 concentrations of the screening test compound working solution 2 (3×). […] The mixture was incubated at room temperature for 15 minutes. […] Afterward, 2 μL of a termination solution (containing 5.4 mM 2-PCPA) was added to each well, mixed evenly, and incubated for another 15 minutes. Finally 4 μL of a pre-mixed antibody solution of Eu-anti H3K4 (PerkinElmer, TRF0404-D) and allophycocyanin (Prozyme, PJ27S) (1:1) was added to each well, mixed evenly, and incubated for 60 minutes.

[2] = target: Histone deacetylase 1 (Homo sapiens, UniProt Q13547); test: In Vitro Enzyme Inhibition Assay - HDAC
Procedure: (§1) The effect of the compound on the enzymatic activity of pan-HDAC and two isoforms (HDAC1 and HDAC8) was examined using the HDAC-Glo I/II Assay and Screening System assay to assess the level of inhibition of HDAC protease activity and selectivity in each isoform. The proteins and detection reagents were from the HDAC-Glo™ I/II Assay and Screening System (Promega). A 1 mM stock solution of the compound was prepared in DMSO and diluted in a 5-fold gradient to create a series of 8 concentrations, and a specific volume of the highest concentration was diluted 25 times with HDAC Buffer to obtain 4× working solution of the compound. […] The 384-well plate was then read on a multifunctional microplate reader, with the Luminescence channel selected to record Luminescence values (RLU).

[3] = target: T1, Histone deacetylase 8 (Homo sapiens, UniProt Q9BY41); test: In Vitro Enzyme Inhibition Assay - HDAC
T1 sequence (Q9BY41 whole entry): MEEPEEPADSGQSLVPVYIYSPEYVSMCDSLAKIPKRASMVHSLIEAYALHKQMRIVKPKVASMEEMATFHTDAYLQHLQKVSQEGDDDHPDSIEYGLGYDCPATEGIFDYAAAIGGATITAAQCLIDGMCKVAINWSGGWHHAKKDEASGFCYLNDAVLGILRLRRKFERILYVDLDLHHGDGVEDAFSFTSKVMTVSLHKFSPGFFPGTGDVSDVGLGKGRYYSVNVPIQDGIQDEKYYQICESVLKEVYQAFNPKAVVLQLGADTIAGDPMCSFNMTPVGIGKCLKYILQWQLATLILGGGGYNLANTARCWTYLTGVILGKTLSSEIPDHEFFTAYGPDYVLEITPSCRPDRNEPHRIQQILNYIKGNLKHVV
Procedure: as §1

[4] = target: Histone deacetylase 1/8 (Homo sapiens, UniProt Q13547+Q9BY41); test: In Vitro Enzyme Inhibition Assay - HDAC
Procedure: as §1

Histone deacetylase 1, sequence (Q13547 whole entry, canonical isoform): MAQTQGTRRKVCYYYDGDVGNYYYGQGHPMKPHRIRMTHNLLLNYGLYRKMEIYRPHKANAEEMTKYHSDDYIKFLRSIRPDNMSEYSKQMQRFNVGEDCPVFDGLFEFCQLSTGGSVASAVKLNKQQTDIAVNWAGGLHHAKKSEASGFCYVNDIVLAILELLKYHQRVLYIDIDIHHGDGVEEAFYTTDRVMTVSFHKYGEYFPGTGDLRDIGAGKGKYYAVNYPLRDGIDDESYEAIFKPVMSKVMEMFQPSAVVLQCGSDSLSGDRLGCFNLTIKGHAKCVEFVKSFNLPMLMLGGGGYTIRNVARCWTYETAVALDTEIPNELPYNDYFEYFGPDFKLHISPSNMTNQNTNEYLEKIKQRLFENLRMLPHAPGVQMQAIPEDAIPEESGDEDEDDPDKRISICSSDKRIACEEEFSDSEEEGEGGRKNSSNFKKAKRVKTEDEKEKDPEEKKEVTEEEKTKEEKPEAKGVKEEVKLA
Histone deacetylase 1/8, sequence (Q13547 whole entry, one chain of several): as the sequence (Q13547 whole entry, canonical isoform) above

SMILES	IC50 [1]	IC50 [2]	IC50 [3]	IC50 [4]
COC1=C(OCCCCCCC(=O)NO)CC(C2=C(c3ccc(C#N)c(F)c3)N=C(N3CCC(N)CC3)N3C=CNC23)C=C1 (stereo not given) [US20250304549, Example 20]	16.9 nM	311 nM	446 nM	
CNC1CCN(C2N=CC(c3ccc(OCCCCCCC(=O)NO)c(O)c3)=C(c3ccc(C#N)c(F)c3)C2C#N)CC1 (stereo not given) [US20250304549, Example 24]	0.41 nM	8.28 nM	118 nM	
COc1ccc(-c2cnc(N3CCC(NCc4ccc(/C=C/C(=O)NO)cc4)CC3)c(F)c2-c2ccc(C#N)c(F)c2)cc1O [US20250304549, Example 76]			157 nM	1.59 nM
N#Cc1ccc(-c2c(-c3ccc(/C=C/C(=O)NO)c(O)c3)cnc(N3CCC(NCc4ccc(/C=C/C(=O)NO)cc4)CC3)c2C#N)cc1F [US20250304549, Example 90]	8.01 nM	10.6 nM	63.5 nM	19.5 nM
Cc1ccc(-c2cnc(N3CCC(NCc4cnc(/C=C/C(=O)NO)nc4)CC3)c(C#N)c2-c2ccc(C#N)c(F)c2)cc1O [US20250304549, Example 148]	1.05 nM	0.43 nM	58.4 nM	2.47 nM
COc1ccc(-c2cnc(N3CCCC(NCc4ccc(/C=C/C(=O)NO)cc4)CC3)c(C#N)c2-c2ccc(C#N)c(F)c2)cc1O (stereo not given) [US20250304549, Example 149]	0.54 nM	0.5 nM	58.9 nM	1.05 nM
COc1ccc(-c2cnc(N3CCC(NCc4ccc(/C=C/CC(=O)NO)cc4)CC3)c(C#N)c2-c2ccc(C#N)c(F)c2)cc1O [US20250304549, Example 169]	0.42 nM		1400 nM	51.7 nM
O=C(/C=C/c1ccc(CNC(=O)c2cc(CN[C@@H]3C[C@H]3c3ccc(F)cc3)nc(-c3ccc(-n4cccn4)cc3)n2)cc1)NO [US20250304549, Example 232]				114 nM
COc1ccc(C2=C(C3C=NC(C#N)=CC3)C(C#N)C(N3CCC(NCc4ccc(/C=C/C(=O)NO)cc4)CC3)C=C2)cc1O (stereo not given) [US20250304549, Example 267]	7.36 nM			
